The source of these data is patent US20250009739A1, “METHOD OF TREATING A SKIN DISORDER” (PHAMRI Norden AB, priority 2021, published 2025).

The test system of series [1] is ENaC. The note with it: cited from earlier work.
Series [2] concerns ENaC. The note with it: cited from earlier work. This is another data set of the same source.
The conditions of series [3]: human oral dosing 10 mg, adults; cited from earlier work.
The target in series [4] is NCX (Homo sapiens, UniProt P32418). The note with it: cited from earlier work.
Series [5] concerns CXCL1. As to the kind of experiment: CXCL1 expression in TNFα-stimulated primary keratinocytes (Luminex on supernatant). The series is classed as cell-based, human. The note with it: CXCL1, IL1a and TNFα in TNFα-stimulated keratinocytes; concentration where ENaC, NCX1 and NHE1 were predicted to be targeted. The protocol: Primary keratinocytes were stimulated with TNFα (5 ng/ml) for 24 hours and expression of pro-inflammatory cytokines involved in inflammatory skin disease was analyzed with benzamil as inhibitor and compared to inhibitors with different affinity to ENaC/NCX1/NHE1 (amiloride), ENaC but not NCX1 and NHE1 (Camostat mesilate), NCX1 but not ENaC or NHE1 (KB-R7943) or NHE but not ENaC or NCX1 (zoniporide).
Primary human keratinocytes were thawed according to manufacturer's instructions, washed in growth medium (GM) and viability assessed via Tryphan blue. Cells were incubated at 37° C. with 5% CO2. After confluence, a stock cell solution of 1.5×10^5 cells/ml was prepared in GM. 200 μL of the cell suspension was added to each well of respective 96 well plates for a total of 3×10^4 cells/well. Cells were incubated at 37° C. with 5% CO2 overnight for adherence. After overnight incubation, cell culture media was removed from each well and 100 μL of fresh GM was added to each well. Appropriate concentrations of inhibitor compound, vehicle and TNFα was prepared in GM of a final volume of 3 ml. […]
100 μl of each treatment was added to appropriate wells. […] 24 hours post TNFα stimulation, the fluorescence of each well was read at 544/590 nm for cell viability. […] The inflammatory cytokines TNFα, CXCL1 and IL1a in the cell culture supernatants were analysed by Luiminex. […]

Series [6] has as its system Primary human keratinocytes. Briefly: Proliferation / cell viability (alamar blue) of TNFα-stimulated keratinocytes. It counts as cell-based. As to conditions: low-level inflamed keratinocyte conditions (TNFα 5 ng/ml, 24 hours). The protocol: Primary human keratinocytes were thawed according to manufacturer's instructions, washed in growth medium (GM) and viability assessed via Tryphan blue. Cells were incubated at 37° C. with 5% CO2. After confluence, a stock cell solution of 1.5×10^5 cells/ml was prepared in GM. 200 μL of the cell suspension was added to each well of respective 96 well plates for a total of 3×10^4 cells/well. Cells were incubated at 37° C. with 5% CO2 overnight for adherence. After overnight incubation, cell culture media was removed from each well and 100 μL of fresh GM was added to each well. Appropriate concentrations of inhibitor compound, vehicle and TNFα was prepared in GM of a final volume of 3 ml. Concentrations of non-benzamil inhibitors were chosen to be 0.1×, 1× and 10× the IC50 for each primary target. […] Concentration of TNF alpha was selected to recapitulate a low level of pro-inflammatory cytokine stimulation.
100 μl of each treatment was added to appropriate wells. Samples were incubated for 24 hours. 20 hours post TNFα stimulation, 20 μL of alamar blue was added for each well. Cells were incubated for 4 hours at 37° C. 24 hours post TNFα stimulation, the fluorescence of each well was read at 544/590 nm for cell viability. […] The inflammatory cytokines TNFα, CXCL1 and IL1a in the cell culture supernatants were analysed by Luiminex. […]
Background: Alamar Blue is a resazurin reagent that responds to reducing activity.

Each structure is given as a SMILES string.

On to `NC(=Nc1ccccc1)NC(=O)c1nc(Cl)c(N)nc1N` [phenamil], for which the “in vivo efficacy specifically on ENaC relative to amiloride” value in series [1] was “equivalent to amiloride”.

Turning to `CN(C)C(=O)COC(=O)Cc1ccc(OC(=O)c2ccc(NC(=N)N)cc2)cc1` [Camostat Mesilate, Camostat mesilate], the concentration for half-maximal inhibition (IC50) in series [2] is 50 nM.

With `N=C(N)NC(=O)c1nc(Cl)c(N)nc1N` [amiloride], in series [2], the IC50 was 100 nM. Further, in series [3], the serum concentration is 20.6 ng/mL.

Take `N=C(N)SCCc1ccc(OCc2ccc([N+](=O)[O-])cc2)cc1` [KB-R7943]: the concentration for half-maximal inhibition (IC50) in series [4] was 5 to 10 µM.

With `NC(=NCc1ccccc1)NC(=O)c1nc(Cl)c(N)nc1N` [benzamil], in series [5], the “efficacious concentration for reducing cytokine expression” value is reported as “above 1 uM”. In addition, the proliferation entry is given as “does not reduce proliferation” in series [6] (FIG. 6) and “did not reduce proliferation” in series [6] (FIG. 6, listed as Benzamil).

For orientation: IC50 means the concentration that gives 50% inhibition.
